Assay results as given in publication PMC9890698 (BMC Biology, 2023).
Values joined by “and” are separate entries in the source; they are usually repeats but may differ in a detail not shown here. Equal entries are not always repeated.

How the values were obtained:
[1] = system: washed human platelets (P2Y1-R/Gαq signaling); test: IP1 accumulation assay (HTRF) in washed human platelets; format: cell-based; conditions: for Effect on IP1 levels: washed human platelets, ADP 100 μM, antagonists 10 μM, Gq inhibitor 100 nM, apyrase 0.02 U/mL, result in words; for IP1 concentration (% of basal mean at 30 minutes): Fig. S4a, MRS2179 10 µM, individual replicates
Method: As performed in HEK293T cells, we thus quantified intracellular IP1 levels to monitor Gαq protein-dependent signaling pathways.
Human platelets were prepared from adult healthy volunteers free of antiplatelet or anti-inflammatory medication since at least ten days. […] After two steps of centrifugation and suspension in Tyrode’s buffer (140 mM NaCl, 5 mM KCl, 5 mM KH2PO4, 1 mM MgSO4, 10 mM HEPES, 5 mM glucose and 0.35% (w/v) BSA, pH 6,7), washed platelets were suspended in the same buffer adjusted to pH 7.4 and containing 1 mM CaCl2. The final platelet suspension was adjusted to 3.10^8 platelets/mL and rested for 45 min in the presence of 0.02 U/mL apyrase and 10 μM indomethacin at 37 °C prior experiments. PGI2 (0.5 μM) was added before centrifugation steps to avoid platelet activation.
Quantification of intracellular IP1 was performed using the HTRF (Homogeneous Time Resolved Fluorescence) IP1 competitive immunoassay (IP-One Tb kit. Cisbio. France) according to the manufacturer’s instructions. Briefly, 20,000 HEK293T/17 cells or 3.10^6 platelets were distributed in a 384-well white microplate (Greiner) and incubated with the indicated molecules for 30 min or 2 h at 37 °C in the presence of 50 mM of LiCl to prevent IP1 degradation. After addition of d2-labeled IP1 (acceptor) and anti-IP1-Cryptate (donor) for 1 h, the specific FRET signals were calculated by the fluorescence ratio of the acceptor and donor emission signal (665/620 nm) collected using a modified Infinite F500 (Tecan Group Ltd). Conversion of the HTRF ratio of each sample into IP1 concentrations was performed on the basis of a standard curve to determine the linear dynamic range of the assay.

[2] = target: T1, Human P2Y1-R (Homo sapiens, UniProt P47900); test: Gαq protein activation BRET2 assay (Gαq-RLuc8/GFP2-Gγ2/Gβ1) in HEK293T cells expressing P2Y1-R; format: cell-based; parameters: ADP-modulated BRET / MRS2179-modulated BRET: unit not given here; conditions: for G protein signaling, Ligand-modulated BRET (% of maximum MRS2179 mean value): Figure 4a, individual replicates; for Emax ± s.e.m.: normalized to the mean value of maximal MRS2179 response, in %; for Behaviour on P2Y1-R-dependent constitutive Gαq protein activation: HEK293T cells, result in words
T1 construct: expressed in transfected cells; host or cells: HEK293T/17
T1 sequence (P47900 whole entry): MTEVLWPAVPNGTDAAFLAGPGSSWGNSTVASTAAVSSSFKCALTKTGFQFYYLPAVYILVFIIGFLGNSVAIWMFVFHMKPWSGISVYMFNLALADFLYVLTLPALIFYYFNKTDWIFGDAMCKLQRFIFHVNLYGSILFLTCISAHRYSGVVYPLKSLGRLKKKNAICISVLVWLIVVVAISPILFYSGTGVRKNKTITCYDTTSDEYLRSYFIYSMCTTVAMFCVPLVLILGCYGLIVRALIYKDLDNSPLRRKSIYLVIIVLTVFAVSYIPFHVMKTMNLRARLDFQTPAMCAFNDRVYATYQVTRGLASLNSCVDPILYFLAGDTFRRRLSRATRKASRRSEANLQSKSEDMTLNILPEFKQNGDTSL
Excerpt: As previously described, using a BRET^2 (bioluminescence resonance energy transfer)-based assay, we directly monitored the basal Gαq protein activation by measuring the interaction between Gαq and Gγ2 subunits of the Gαqβ1γ2 heterotrimer complex. Indeed, this assay is based on the non-radiative transfer between the Renilla reniformis luciferase (RLuc8) energy donor fused to the Gαq protein subunit and the fluorescent GFP2 energy acceptor fused to Gγ2 protein subunit (Fig. 1a). […] By contrast, ligand-independent constitutive receptor activation or agonist-induced receptor activation will promote Gαq/Gγ2 subunit dissociation, thereby leading to a decrease of the basal BRET signal (Fig. 1a). […] To preclude any P2Y1-R activation by a passive release of ADP by HEK293T cells, we performed similar experiments in the presence of high concentration of apyrase (0.2U/mL) to degrade any trace of ADP in the medium (Additional File 2: Fig. S2a). Under these conditions, P2Y1-R expression still induces a marked and significant decrease of the basal BRET signal compared to control cells (pcDNA3.1), thereby supporting a P2Y1-R-dependent constitutive activation of Gαq protein. […] Of note, because P2Y1-R and AT1-R were respectively Myc- and HA-tagged and were thus detected using different primary antibodies, their expression at the cell surface cannot be compared between each other’s.
Human P2Y1-R (NCBI Reference Sequence: NM_002563.2) and P2Y12-R (NCBI Reference Sequence: NM_022788.3) were fused to double Myc epitope and rat AT1-R (NCBI Reference Sequence: NM_030985.4) to HA tag in N-terminus extracellular region. Alternatively, receptors were also fused to Venus tag in C-terminus intracellular region. Plasmids encoding Gαq-RLuc8, GFP2-Gγ2 and untagged Gβ1 were previously described. ADP was purchased from Sigma-Aldrich/Merck (Darmstadt, Germany). […] The Gq inhibitor (FR900359) was kindly supplied by Evi Kostenis (University of Bonn. Germany).
G protein activation and β-arrestin 2 recruitment were performed as previously described. Briefly, vectors encoding receptors, Gαq-RLuc8, GFP2-Gγ2, Gβ1, or β-arrestin 2 were transiently cotransfected into HEK293T/17 cells as indicated in the figure legends. Forty-eight hours after transfection, cells were washed and resuspended in PBS containing 0.1% (w/v) glucose at room temperature and then distributed (80 μg proteins/well) in a 96-well microplate (PerkinElmer). For G protein activation experiments (BRET^2), cells were incubated in the absence (basal BRET signal) or in the presence of ligand for 1 minute. BRET signal between RLuc8 and GFP2 was measured after addition of the luciferase substrate coelenterazine 400a (5 μM). For β-arrestin 2 recruitment (BRET^1), cells were stimulated with ligands for 5 or 15 min. BRET signal was recorded after incubation with coelenterazine h (5 μM) for 8 min. For kinetics studies, BRET signal between RLuc and Venus was recorded at 20-s intervals at basal state for the 2 first minutes and then for 5 min after ligand injection. For saturation curves (BRET^1), the expression level of Venus- or RLuc-tagged protein was determined by direct measurement of total fluorescence and luminescence respectively. Total fluorescence was first measured with an excitation filter at 485 nm and an emission filter at 520 nm. Then, the same sample was incubated for 8 minutes with 5 μM coelenterazine h and the total luminescence was measured. BRET^2 and BRET^1 readings were collected using a modified Infinite F500 (Tecan Group Ltd). The BRET^2 signal was calculated by the ratio of emission of GFP2 (510–540 nm) to RLuc8 (370–450 nm) and the BRET^1 signal by the ratio of emission of Venus (520–570 nm) to RLuc (370–480 nm). […]

[3] = G protein signaling, Fig. 4a, 1 min

SMILES	Effect on IP1 levels ([1]; 2 h)	G protein signaling, Ligand-modulated BRET (% of maximum MRS2179 mean value) ([2]; [Ligand] 1.00E-04 M)	G protein signaling, Ligand-modulated BRET (% of maximum MRS2179 mean value) ([2]; [Ligand] 1.00E-05 M)	G protein signaling, Ligand-modulated BRET (% of maximum MRS2179 mean value) ([2]; [Ligand] 1.00E-06 M)	G protein signaling, Ligand-modulated BRET (% of maximum MRS2179 mean value) ([2]; [Ligand] 1.00E-07 M)	G protein signaling, Ligand-modulated BRET (% of maximum MRS2179 mean value) ([2]; [Ligand] 1.00E-08 M)	G protein signaling, Ligand-modulated BRET (% of maximum MRS2179 mean value) ([2]; [Ligand] 1.00E-09 M)	G protein signaling, Ligand-modulated BRET (% of maximum MRS2179 mean value) ([2]; [Ligand] 1.00E-10 M)	EC50 [2, 3] [µM]	pEC50 ± s.e.m. [2, 3]	Emax ± s.e.m. [2, 3]	Behaviour on P2Y1-R-dependent constitutive Gαq protein activation [2]	IP1 concentration (% of basal mean at 30 minutes) ([1]; 30 minutes)	IP1 concentration (% of basal mean at 30 minutes) ([1]; 2 hours)	IP1 concentration (% matched basal values) ([1]; human platelets, MRS2179 10 μM, 2 h, individual donors)	Maximal efficacy (Emax ± s.e.m.), MRS2179-modulated BRET ([2]; Fig. 1f, 1 min stimulation, difference in BRET signal with and without ligand)	EC50 ([2]; Fig. 1f, MRS2179 inverse agonism on Gαq protein activity, 1 min) [µM]	pEC50 ± s.e.m. ([2]; Fig. 1f, inverse agonism on Gαq protein activity, 1 min)	MRS2179-modulated BRET ([2]; [MRS2179] 1.00E-04 M, 1 min)
CNc1nc(Cl)nc2c1ncn2[C@H]1CC(OP(=O)(O)O)[C@]2(COP(=O)(O)O)C[C@H]12 (stereo in doubt) [MRS2279]	inverse agonist efficacy	129.138 % of maximum MRS2179 mean value and 120.304 % of maximum MRS2179 mean value and 127.2 % of maximum MRS2179 mean value and 111.359 % of maximum MRS2179 mean value and 120.336 % of maximum MRS2179 mean value and 114.718 % of maximum MRS2179 mean value	65.0429 % of maximum MRS2179 mean value and 66.0702 % of maximum MRS2179 mean value and 71.1916 % of maximum MRS2179 mean value and 1.991 % of maximum MRS2179 mean value and 5.227 % of maximum MRS2179 mean value and 4.981 % of maximum MRS2179 mean value	0.8906 % of maximum MRS2179 mean value and 4.044 % of maximum MRS2179 mean value and 23.8581 % of maximum MRS2179 mean value and -4.504 % of maximum MRS2179 mean value and -0.009097 % of maximum MRS2179 mean value and -7.368 % of maximum MRS2179 mean value	-9.195 % of maximum MRS2179 mean value and -17.2152 % of maximum MRS2179 mean value and -1.434 % of maximum MRS2179 mean value and -4.1872 % of maximum MRS2179 mean value and -11.6872 % of maximum MRS2179 mean value and -13.2576 % of maximum MRS2179 mean value	-19.0202 % of maximum MRS2179 mean value and -26.9343 % of maximum MRS2179 mean value and -6.222 % of maximum MRS2179 mean value and 4.642 % of maximum MRS2179 mean value and -7.159 % of maximum MRS2179 mean value and -5.465 % of maximum MRS2179 mean value	-11.1827 % of maximum MRS2179 mean value and -20.1662 % of maximum MRS2179 mean value and -5.932 % of maximum MRS2179 mean value and 1.161 % of maximum MRS2179 mean value and -4.3372 % of maximum MRS2179 mean value and -8.802 % of maximum MRS2179 mean value	-9.413 % of maximum MRS2179 mean value and -16.1844 % of maximum MRS2179 mean value and -3.46 % of maximum MRS2179 mean value and -2.408 % of maximum MRS2179 mean value and -4.624 % of maximum MRS2179 mean value and -8.503 % of maximum MRS2179 mean value	26.4	4.579 ± 0.1247	154.3 ± 13.86	behaved as inverse agonists	–	–	–	–	–	–	–
CNc1ncnc2c1ncn2[C@H]1C[C@H](OP(=O)(O)O)[C@@H](COP(=O)(O)O)O1 [MRS2179]	decreased IP1 levels	119.465 % of maximum MRS2179 mean value and 98.3727 % of maximum MRS2179 mean value and 97.2091 % of maximum MRS2179 mean value and 96.9774 % of maximum MRS2179 mean value and 99.1946 % of maximum MRS2179 mean value and 88.7807 % of maximum MRS2179 mean value	56.3081 % of maximum MRS2179 mean value and 33.7445 % of maximum MRS2179 mean value and 25.9535 % of maximum MRS2179 mean value and 52.677 % of maximum MRS2179 mean value and 40.3542 % of maximum MRS2179 mean value and 35.9046 % of maximum MRS2179 mean value	9.486 % of maximum MRS2179 mean value and 10.5017 % of maximum MRS2179 mean value and 11.1842 % of maximum MRS2179 mean value and 16.1238 % of maximum MRS2179 mean value and -1.632 % of maximum MRS2179 mean value and 9.136 % of maximum MRS2179 mean value	-1.306 % of maximum MRS2179 mean value and -6.5129 % of maximum MRS2179 mean value and -11.3924 % of maximum MRS2179 mean value and -9.0003 % of maximum MRS2179 mean value and -8.705 % of maximum MRS2179 mean value and -1.657 % of maximum MRS2179 mean value	0.5671 % of maximum MRS2179 mean value and -5.257 % of maximum MRS2179 mean value and -11.3188 % of maximum MRS2179 mean value and -7.6778 % of maximum MRS2179 mean value and -4.305 % of maximum MRS2179 mean value and -3.069 % of maximum MRS2179 mean value	-1.107 % of maximum MRS2179 mean value and -5.538 % of maximum MRS2179 mean value and -15.6317 % of maximum MRS2179 mean value and -13.6938 % of maximum MRS2179 mean value and -9.3466 % of maximum MRS2179 mean value and -3.722 % of maximum MRS2179 mean value	-2.846 % of maximum MRS2179 mean value and -13.4143 % of maximum MRS2179 mean value and -1.422 % of maximum MRS2179 mean value and -10.0078 % of maximum MRS2179 mean value and -9.182 % of maximum MRS2179 mean value and 0.7769 % of maximum MRS2179 mean value	15.2	4.817 ± 0.0671	115.7 ± 5.057	inverse agonist	61.0057 % of basal mean at 30 minutes and 99.6481 % of basal mean at 30 minutes and 82.2183 % of basal mean at 30 minutes and 56.7485 % of basal mean at 30 minutes	94.0172 % of basal mean at 30 minutes and 113.32 % of basal mean at 30 minutes and 105.9 % of basal mean at 30 minutes and 70.9752 % of basal mean at 30 minutes	129.303 % matched basal values and 123.213 % matched basal values and 123.793 % matched basal values and 163.625 % matched basal values and 131.963 % matched basal values and 159.513 % matched basal values and 140.89 % matched basal values and 171.298 % matched basal values and 155.836 % matched basal values and 154.357 % matched basal values and 192.203 % matched basal values and 190.967 % matched basal values and 205.13 % matched basal values and 115.394 % matched basal values and 124.227 % matched basal values and 114.571 % matched basal values	0.1224 ± 0.01335	11.1	4.955 ± 0.1405	0.06995 and 0.1332 and 0.1164 and 0.136 and 0.09077
